From patent US5360803A, “Composition and method for treating cancer” (Dan Farber Cancer Institute, priority 1992, dated 1994)
Where two headings read alike, the source gives them in different places.

Tests used:
CV-1 cells = assay: selective killing assay, colony number reduced to 50% of control, normal monkey kidney epithelial cell line CV-1; format: cell-based; settings: normal monkey kidney epithelial cells, 24 hours treatment, colony count after 7 to 10 days; for IC50: Primates, CV-1, Table III; for CV-1 (IC50): Table III
Excerpt: The control received culture media only.

CX-1 cells = assay: selective killing assay, colony number reduced to 50% of control, human colon carcinoma cell line CX-1; format: cell-based; settings: for IC50 / CX-1 (IC50): human colon carcinoma, 24 hours treatment, colony count after 7 to 10 days;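 on all read-outs here: colonies stained with crystal violet and counted, control cells given medium alone, exposure at 37 °C, normal monkey kidney epithelial CV-1 cells as the non-cancer comparator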

SMILES	IC50 (CV-1 cells) [µg/mL]	Selectivity (ratio of IC50 for CV-1 and IC50 for CX-1) (CX-1 cells; CV-1/CX-1)	IC50 (CX-1 cells; Homo sapiens, CX-1, Table III) [µg/mL]	Selectivity (ratio of IC50 for CV-1 and IC50 for CX-1) (CX-1 cells)	IC50 (CX-1 cells; CX-1, Table III) [µg/mL]	CV-1 (IC50) (CV-1 cells) [µg/mL]	CX-1 (IC50) (CX-1 cells; Table III) [µg/mL]
CCn1c(=Cc2cc[n+](CC)c3ccccc23)sc(=C2Sc3ccccc3N2C)c1=O [Compound 24]	1.5	150	0.01				
CCn1c(=Cc2sc3ccccc3[n+]2CC)sc(=C2Oc3ccc(OC)cc3N2C)c1=O [Compound 105]	6	120	0.05				
CCN1C(=CC=c2sc(=Cc3sc4c([n+]3CC)CCCC4)n(CC)c2=O)Oc2ccccc21 [C, reference compound]	2	50	0.04				
CCn1c(=Cc2ccc3ccccc3[n+]2CC)sc(=C2Sc3ccccc3N2C)c1=O [Compound 20]	2		0.02	100			
CCn1c(=Cc2sc3c4ccccc4ccc3[n+]2CC)sc(=C2Sc3c(ccc4ccccc34)N2C)c1=O [Compound 99]	10	100	0.1				
CCn1c(=Cc2[se]c3ccccc3[n+]2CC)sc(=C2Sc3ccc(Cl)cc3N2C)c1=O [Compound 63]	20	100			0.2		
CCn1c(=Cc2sc3ccc(Cl)cc3[n+]2CC)sc(=C2Sc3ccccc3N2C)c1=O [Compound 40]	6	200	0.03				
CCn1c(=Cc2sc3ccccc3[n+]2CC)sc(=C2Sc3ccc(OC)cc3N2C)c1=O [Compound 47]	6	150	0.04				
CCn1c(=CC2=[N+](CC)CCS2)sc(=C2Sc3ccc(OC)cc3N2C)c1=O [Compound 65]	20	100	0.2				
CCn1c(=Cc2oc3ccccc3[n+]2C)sc(=C2Sc3ccccc3N2C)c1=O [Compound 25]		150				6	0.04
CCn1c(=Cc2scc(C)[n+]2CC)sc(=C2Sc3ccccc3N2C)c1=O [Compound 32]	6	150	0.04				
CCn1c(=Cc2sc3ccc4ccccc4c3[n+]2CC)sc(=C2Sc3ccc(Cl)cc3N2C)c1=O [Compound 223]	20	200	0.1				
CCn1c(=Cc2sc3c4ccccc4ccc3[n+]2CC)sc(=C2SCCN2C)c1=O [Compound 121]	20	200	0.1				
CCn1c(=Cc2oc3ccccc3[n+]2CC)sc(=C2Oc3ccccc3N2C)c1=O [Compound 104]	18	180	0.1				
CCn1c(=Cc2oc3cc4ccccc4cc3[n+]2CC)sc(=C2Sc3ccc4ccccc4c3N2C)c1=O [Compound 96]	20	333	0.06				
CCn1c(=Cc2sc3ccc4ccccc4c3[n+]2CC)sc(=C2C=Cc3ccccc3N2C)c1=O [Compound 163]	20	667	0.03				
CCn1c(=Cc2cccc[n+]2CC)sc(=C2Sc3ccccc3N2C)c1=O [Compound 18]	20	4000	0.005				
CCn1c(=Cc2oc3ccccc3[n+]2CC)sc(=C2Oc3ccc4ccccc4c3N2C)c1=O [Compound 117]	4	133	0.03				

SMILES	IC50 (CV-1 cells) [µg/mL]	Selectivity (ratio of IC50 for CV-1 and IC50 for CX-1) (CX-1 cells; CV-1/CX-1)	IC50 (CX-1 cells; Homo sapiens, CX-1, Table III) [µg/mL]	Selectivity (ratio of IC50 for CV-1 and IC50 for CX-1) (CX-1 cells)	IC50 (CX-1 cells; CX-1, Table III) [µg/mL]	CV-1 (IC50) (CV-1 cells) [µg/mL]	CX-1 (IC50) (CX-1 cells; Table III) [µg/mL]
CCn1c(=Cc2oc3ccccc3[n+]2CC)sc(=C2Sc3ccccc3N2C)c1=O [Compound 34]		267				8	0.03
CCn1c(=CC2=[N+](CC)CCS2)sc(=C2Sc3ccc4ccccc4c3N2C)c1=O [Compound 86]	10	200	0.05				
CCn1c(=Cc2sc3ccccc3[n+]2CC)sc(=C2Sc3c(ccc4ccccc34)N2C)c1=O [Compound 98]	8	160	0.05				
CCn1c(=Cc2sc3c4ccccc4ccc3[n+]2CC)sc(=C2Oc3ccc4ccccc4c3N2C)c1=O [Compound 115]	6	120	0.05				
CC[n+]1c(C=c2sc(=C3Sc4ccccc4N3C)c(=O)n2C2CCCCC2)oc2ccccc21 [Compound 42]	2	100	0.02				
CCn1c(=Cc2sc3ccc4ccccc4c3[n+]2CC)sc(=C2Sc3ccc(C(F)(F)F)cc3N2C)c1=O [Compound 307]	6	120	0.05				
CCn1c(=Cc2oc3ccc(OC)cc3[n+]2CC)sc(=C2Sc3ccccc3N2C)c1=O [Compound 35]	6	150	0.04				
CCn1c(=CC2=[N+](CC)C(C)CS2)sc(=C2Sc3ccc4ccccc4c3N2C)c1=O (stereo not drawn) [Compound 309]	4	400	0.01				
CCn1c(=CC2=[N+](C)c3ccccc3C2(C)C)sc(=C2Sc3ccccc3N2C)c1=O [Compound 17]	10	167	0.06				
CC[N+]1=C(C=c2sc(=C3Oc4ccc5ccccc5c4N3C)c(=O)n2Cc2ccccc2)SCC1 [Compound 314]	10	200	0.05				
CCn1c(=Cc2sc3ccc4ccccc4c3[n+]2CC)sc(=C2Sc3c(ccc4ccccc34)N2C)c1=O [Compound 255]	5	100	0.05				
CCn1c(=Cc2sc3c4ccccc4ccc3[n+]2CC)sc(=C2SC=C(C)N2C)c1=O [Compound 131]	6	120	0.05				
CCn1c(=Cc2sc3c4ccccc4ccc3[n+]2CC)sc(=C2Sc3ccc4ccccc4c3N2C)c1=O [Compound 91]		500				20	0.04
CCn1c(=Cc2oc3ccccc3[n+]2CC)sc(=C2Sc3ccccc3N2C)c1=O [Compound 38]		333				10	0.03
CN1C(=c2sc(=Cc3oc4ccccc4[n+]3C)n(C)c2=O)Sc2ccccc21 [Compound 46]	10	100			0.1		
CCn1c(=Cc2sc3ccccc3[n+]2CC)sc(=C2SC3=C(CCCC3)N2C)c1=O [Compound 129]	10	100	0.1				
CCn1c(=Cc2sc3c4ccccc4ccc3[n+]2CC)sc(=C2Sc3ccc(Cl)cc3N2C)c1=O [Compound 54]	20	400	0.05				
CCn1c(=Cc2sc3ccc(OC)cc3[n+]2CC)sc(=C2Sc3ccc4ccccc4c3N2C)c1=O [Compound 95]	20	500	0.04				
